In ChEMBL document CHEMBL5661974, “Pharmacologic characterization of a potent inhibitor of class I phosphatidylinositide 3-kinases” (Cancer Res, 2007):
Active and inactive are the calls of the source. No cut-off for these calls is given here.

Assays:
PC-3 = experiment: Antiproliferative activity against human PC-3 cells harboring PTEN deletion assessed as cell growth inhibition incubated for 96 hrs by SRB assay; format: functional
MDA-MB-468 = experiment: Antiproliferative activity against human MDA-MB-468 cells harboring PTEN deletion assessed as cell growth inhibition incubated for 96 hrs by SRB assay; format: functional
U-87 MG [1] = experiment: Antiproliferative activity against human U-87MG cells harboring PTEN deletion assessed as cell growth inhibition incubated for 96 hrs by SRB assay; format: functional, U-87MG ATCC
HCT-116 [2] = experiment: Antiproliferative activity against human HCT-116 cells harboring PI3KCA mutant assessed as cell growth inhibition incubated for 96 hrs by SRB assay; format: functional
Detroit 562 = experiment: Antiproliferative activity against human Detroit 562 cells harboring PI3KCA mutant assessed as cell growth inhibition incubated for 96 hrs by SRB assay; format: functional
IGROV-1 = experiment: Antiproliferative activity against human IGROV-1 cells harboring PI3KCA/PTEN mutant assessed as cell growth inhibition incubated for 96 hrs by SRB assay; format: functional
A2780 = experiment: Antiproliferative activity against human A2780 cells harboring PI3KCA/PTEN mutant assessed as cell growth inhibition incubated for 96 hrs by SRB assay; format: functional
MDA-MB-435 = experiment: Antiproliferative activity against human MDA-MB-435 cells harboring AKT assessed as cell growth inhibition incubated for 96 hrs by SRB assay; format: functional
A549 = experiment: Antiproliferative activity against human A549 cells harboring AKT assessed as cell growth inhibition incubated for 96 hrs by SRB assay; format: functional
HCT-116 [3] = experiment: Inhibition of recombinant PI3K in human HCT-116 cells assessed as increase in cleavage of PARP at 10 times of GI50 concentration incubated for 24 hrs by immunoblot analysis; format: cell-based
HCT-116 [4] = experiment: Inhibition of recombinant PI3K in human HCT-116 cells assessed as increase in cleavage of PARP at 5 times of GI50 concentration incubated for 24 hrs by immunoblot analysis; format: cell-based
U-87 MG [5] = conditions: Homo sapiens, time 24.0 hrs
U-87 MG [6] = conditions: Homo sapiens, time 24.0 hrs; remark: listed apart in the source

O=c1cc(N2CCOCC2)oc2c(-c3ccccc3)cccc12 [LY-294002]
GI50 (PC-3): 4.6 µM
GI50 (MDA-MB-468): 6.5 µM
GI50 (U-87 MG [1]): 9.8 µM
GI50 (HCT-116 [2]): 10.5 µM
GI50 (Detroit 562): 12.1 µM
GI50 (IGROV-1): 5.5 µM
GI50 (A2780): 5.58 µM
GI50 (MDA-MB-435): 15.3 µM
GI50 (A549): 9 µM
inhibition (HCT-116 [3]): Active
inhibition (HCT-116 [4]): Active
inhibition (U-87 MG [5]): Active
inhibition (U-87 MG [6]): Active
